Reference: patent US20250101061A1, “UPREGULATION OF FERRITIN HEAVY CHAIN 1 EXPRESSION” (HBC Immunology Inc., priority 2022, published 2025)
Values joined by “and” are separate entries in the source; they are usually repeats but may differ in a detail not shown here. Equal values may be shown once. Peptide text beside a SMILES is read from it.

How the values were obtained:
FTH1 = FTH1 gene expression in human skeletal muscle cells (HSkMC) by qRT-PCR; assay type: cell-based; settings: for FTH1 Fold Change at 0.625 μM / FTH1 Fold Change at 1.25 μM / FTH1 Fold Change at 2.5 μM / FTH1 Fold Change at 5 μM / FTH1 Fold Change at 10 μM: average of triplicate (SD ≤ 0.3); for FTH1 Fold Change, Average / FTH1 Fold Change (individual runs): SPH 100 μM or synthetic oligopeptide 10 μM, about 12 hours; for FTH1 Fold Change (individual runs): triplicate runs
Procedure: A cell line derived from human skeletal muscle was selected to assess the effect of SPH and oligopeptides on gene expression. HSkMC (PCS-950-010) obtained from ATCC (Manassas, VA) were propagated in Mesenchymal Stem Cell Basal Medium (ATCC) reduced serum medium supplemented with Primary Skeletal Cell Muscle Growth Kit (ATCC) that contains L-Glutamine (10 mM), Dexamethasone ([…]), rh epidermal growth factor (5 ng/ml), rh FGF-b (5 ng/ml), rh Insulin (25 μg/mL), and fetal bovine serum (4%), on 100 mm cell culture dishes. For this assay, the HSkMC cells were seeded in 24 well plates at a cell density of 1×10^4 cells/cm^2 and maintained at 37° C. in a humidified 5% CO2 atmosphere. […]
Total RNA was extracted using the UPzol reagent for the cell pellets, followed by a DNAse treatment (DNAse TURBO), using the manufacturer's protocols. Complementary DNA (cDNA) was synthesized with the High Capacity cDNA Reverse Transcription Kit (Applied Biosystems) using random hexamers. Gene expression levels were measured by qRT-PCR.
1 μl of cDNA corresponding to 50 ng of reverse transcribed RNA was amplified by Qpcr (QuantStudio™ 6 Flex Real-Time PCR System), using the TaqMan™ Universal PCR Master Mix (Catalog No. 4304437) and a TaqMan™ assay (Roche Molecular Systems, Inc., Pleasanton, CA).
FTH1 gene expression was estimated relative to expression of the housekeeping gene, beta-actin (ACTB), following the standard formula: […]
2-ΔCt. TaqMan™ probe IDs used were: (i) FTH1, Hs01694011_s1; and (ii) ACTB, Hs01060665_g1. All experiments were run in triplicate.

[1] = tested on: Immortalized human astrocytes (P10251-IM); assay: Protection of human astrocytes from hemin-induced injury (LDH release assay); assay type: cell-based; settings: for % LDH Release (individual runs) / % LDH Release, Average: 24 hr pre-treatment: SPH 160 μM, oligopeptide 10 μM, collagen control 160 μM, then 30 μM hemin 6 hrs, scaled to 0.1% Triton X-100 lysis; for mortality of astrocytes after hemin: oligopeptide 10 μM pre-treatment, hemin-induced oxidative damage
Procedure: Immortalized human astrocytes (P10251-IM) were obtained from Innoprot, Spain and prepared under conditions recommended by the supplier. At 90% confluency, the P10251-IM cells were rinsed with 8 ml of DPBS and 2 ml of the T/E Solution (prepared as per Innoprot procedure), then added into an […] and gently rocked so that the P10251-IM cells would be completely covered. The flask was subsequently incubated at 37° C. for 2 minutes. Then 5 ml of fetal bovine serum (FBS) and the T/E solution from the flask were added into a 50 ml conical centrifuge tube. The flask was incubated for an additional 2 minutes, and the P10251-IM cells dislodged from the surface by gentle tapping. The P10251-IM cells were then transferred to the 50 ml conical centrifuge tube with 5 ml of TNS solution. The tube was centrifuged at 1000 rpm for 5 minutes. Then the P10251-IM cells were resuspended in the culture medium, counted, and plated in a poly-L-lysine-coated culture plate at 1×10^4 cell density. Cells were tested after they were incubated for 21 days in vitro.
Confluent P10251-IM cell cultures were washed and then pre-treated with medium alone, or medium supplemented with SPH (160 μM) or an oligopeptide (10 μM) for 24 hr at 37° C. Commercial collagen peptide (Vital Protein) at 160 μM concentration and sterile water were used as negative controls. The P10251-IM cells were subsequently treated with 30 μM hemin in serum-free medium consisting of MEM with 10 mM glucose (MEM10) for 6 hrs.
P10251-IM astrocyte cultures that were […] with 30 μM hemin sustained widespread cell injury. Cell viability was quantified using the lactate dehydrogenase (LDH) release assay as previously described (Chen and Regan, Curr Neurovasc Res, 2:189-196, 2005). Briefly, quantification of the protective effects of SPH and oligopeptides were assessed by determining the mean percentage LDH released, scaled to the complete lysis control culture which was treated with 0.1% Triton X-100 (considered to release 100% of culture LDH).

Structure (SMILES) | FTH1 Fold Change at 0.625 μM (FTH1) | FTH1 Fold Change at 1.25 μM (FTH1) | FTH1 Fold Change at 2.5 μM (FTH1) | FTH1 Fold Change at 5 μM (FTH1) | FTH1 Fold Change at 10 μM (FTH1) | FTH1 Fold Change, Average (FTH1) | FTH1 Fold Change (individual runs) (FTH1) | % LDH Release (individual runs) [1] | % LDH Release, Average [1] | mortality of astrocytes after hemin [1]
CC(C)C[C@H](NC(=O)[C@H](CCC(=O)O)NC(=O)CNC(=O)[C@H](CO)NC(=O)[C@H](CCC(=O)O)NC(=O)[C@H](CCC(=O)O)NC(=O)[C@@H](N)CCCNC(=N)N)C(=O)O [FT-008, REESGEL] (H-REESGEL-OH) | 1.1 fold | 1.0 fold | 2.1 fold | 2.7 fold | 3.8 fold | 3.6 fold | 3.9 fold and 3.3 fold and 3.7 fold | 29% and 27% and 31% | 29% | 29%
CSCC[C@H](NC(=O)[C@@H]1CCCN1C(=O)[C@H](CCCCN)NC(=O)[C@H](CC(=O)O)NC(=O)[C@H](CO)NC(=O)[C@H](CCC(=O)O)NC(=O)[C@H](CCC(=O)O)NC(=O)[C@@H](N)CCCNC(=N)N)C(=O)N[C@@H](Cc1ccc(O)cc1)C(=O)O [FT-006, REESDKPMY] (H-REESDKPMY-OH) | 1.3 fold | 2.2 fold | 3.5 fold | 4.2 fold | 4.9 fold | 4.7 fold | 4.5 fold and 4.7 fold and 4.9 fold | 40% and 39% and 42% | 40% | 40%
N=C(N)NCCC[C@H](NC(=O)[C@@H]1CCCN1)C(=O)N[C@@H](CCC(=O)O)C(=O)N[C@@H](CCC(=O)O)C(=O)N[C@@H](CO)C(=O)N[C@@H](CC(=O)O)C(=O)N[C@@H](CCCCN)C(=O)N1CCC[C@H]1C(=O)O [FT-007, PREESDKP] (H-PREESDKP-OH) | 1.1 fold | 1.0 fold | 1.1 fold | 1.9 fold | 2.8 fold | 2.6 fold | 2.5 fold and 2.6 fold (2×) | 35% and 38% and 34% | 36% | 36%
